Laboratory results taken from US20250305010A1, “LIPID COMPOSITIONS AND METHODS OF PRODUCING SAME” (Wilk Technologies International Ltd., priority 2022, published 2025).

Columns and labels:
Type in all cases: cell-based, bovine
[1] = tested on: mammary epithelial cells (MECs); test: Cell viability and morphology of MECs under oleic acid with or without LXRa
Method: 1. Oleic acid treatment: Oleic acid was added to the induction medium at […] final concentration. Treatment was carried for 1 up to 7 days.
2. […] LXRa was added into the media with or without Oleic acid. Two LXR agonists were tested: GW3965 (LXR1, SIGMA) and T0901317 (LXR2, SIGMA), each at a concentration of luM/ml for at least overnight (ON) incubation. The OA was added after cells reached the confluency of at least 80%.
The analysis was done for the presence of 360 μM OA or 1100 μM OA with or without LXRa (TO901317).

[2] = tested on: mammary epithelial cells (MECs); test: Intracellular triglycerides (TGs) in MECs, plate assay
Method: 1. Oleic acid treatment: Oleic acid was added to the induction medium at […] final concentration. Treatment was carried for 1 up to 7 days. 2. […] LXRa was added into the media with or without Oleic acid. Two LXR agonists were tested: GW3965 (LXR1, SIGMA) and T0901317 (LXR2, SIGMA), each at a concentration of luM/ml for at least overnight (ON) incubation. The OA was added after cells reached the confluency of at least 80%. After treatment, cells were harvested with trypsin (0.05%), washed with 0.9% (w/v) NaCl and stored at −20° C. until lipid extraction. Total lipids were extracted from the intact cells by NP-40 and from media by cold-extraction procedure developed by Folch et al. with few adaptations. Briefly, a 5-ml aliquot of methanol: chloroform solution (2:1, v/v) was added to each sample. After incubation at room temperature, 1 ml of double-distilled water was added. After overnight incubation at 4° C., the upper phase was discarded, and the lower phase was filtered through a Pasteur pipette with glass wool. Samples were then dried under a nitrogen stream at 65° C., diluted in 100 μl 0.5% NP-40. Of note, lipid metabolites are measured by Cobas measurement, which is a parameter for lipid activity but measures also glycerol, the plate assay on the other hand measures TGs specifically while eliminating the glycerol background. After treatment, medium was collected and centrifuged at 500 g for 10 min. The supernatant was transferred to a fresh tube and kept at 4° C. until analysis. Medium triglyceride content was quantified with a Triglyceride Quantification Kit (lipase assay Abcam, Cambridge, UK). Quantification was performed against external standard curves and expressed as μg/10∧6 live cells. Live cell number was determined with a hemocytometer after Trypan blue staining.

[3] = tested on: mammary epithelial cells (MECs); test: Lipids / lipid metabolites released to the culture medium of MECs; settings: 1 μM/ml LXRa with OA
Method: Total lipids were extracted from the intact cells by NP-40 and from media by cold-extraction procedure developed by Folch et al. with few adaptations. Briefly, a 5-ml aliquot of methanol: chloroform solution (2:1, v/v) was added to each sample. After incubation at room temperature, 1 ml of double-distilled water was added. After overnight incubation at 4° C., the upper phase was discarded, and the lower phase was filtered through a Pasteur pipette with glass wool. Samples were then dried under a nitrogen stream at 65° C., diluted in 100 μl 0.5% NP-40. Of note, lipid metabolites are measured by Cobas measurement, which is a parameter for lipid activity but measures also glycerol, the plate assay on the other hand measures TGs specifically while eliminating the glycerol background. After treatment, medium was collected and centrifuged at 500 g for 10 min. The supernatant was transferred to a fresh tube and kept at 4° C. until analysis. Medium triglyceride content was quantified with a Triglyceride Quantification Kit (lipase assay Abcam, Cambridge, UK). Quantification was performed against external standard curves and expressed as μg/10∧6 live cells. Live cell number was determined with a hemocytometer after Trypan blue staining.

[4] = tested on: LXR downstream genes: SREBP1, FASN, SLC25A1 and SQLE; test: RT-PCR expression of LXR downstream lipid metabolism genes in MECs after overnight LXR agonist incubation; settings: OA incubation of MECs
Method: A primary culture of MEC was isolated from mammary biopsies. Briefly, udder tissue was collected from lactating cows in a commercial slaughterhouse and immediately submerged in ice-cold growth medium, DMEM-F12, with 1000 U/ml penicillin, 1 mg/ml streptomycin, 2.5 μg/ml amphotericin B mixture, and 0.02 mg/ml heparin supplementation to prevent cell clotting after digestion. Study protocols followed the regulations of the Israeli Ministry of Health. Cells were grown in plastic culture dishes with DMEM/F12 supplemented with 10% (w/v) FBS, 100 U/ml penicillin, 100 μg/ml streptomycin, 0.25 μg/ml amphotericin B supplemented with insulin (1 μg/ml), hydrocortisone (0.5 μg/ml) and prolactin (1 μg/ml). 2. […] LXRa was added into the media with or without Oleic acid. Two LXR agonists were tested: GW3965 (LXR1, SIGMA) and T0901317 (LXR2, SIGMA), each at a concentration of luM/ml for at least overnight (ON) incubation. The OA was added after cells reached the confluency of at least 80%. Cells were harvested using the […] reagent and pellet was collected by centrifugation of 3 min in 300 rcf. RNA was extracted from 1×10^6 cells using NzytechTM total RNA isolation kit (MB13402). cDNA was prepared using SensiFastTM cDNA kit (0.5μgr RNA/20 μl reaction mix). RT-PCR was done with the following primers by using SensiFastTM RT-PCR kit with 1.25-20 ng cDNA/well. [table] […]

SMILES | Effect of LXRa on oleic acid toxicity (cells viability and morphology) ([1]; LXRa 1 μM/ml TO901317, 360 μM or 1100 μM OA) | Higher intracellular TGs levels vs OA only ([2]; 360 μM OA treatment, LXRa 1 μl/ml) | Delta triglycerides (TGs) levels inside cells with vs without LXRa ([2]; FIG. 3) | Effect of LXR agonist on intracellular TGs ([2]; OA concentrations higher than 360 μM) | Lipids release to the medium [3] | Effect on cells viability ([1]; oleic acid above 300 μM or longer than one day) | Effect on LXR dependent gene expression of lipid metabolism [4]
O=S(=O)(c1ccccc1)N(CC(F)(F)F)c1ccc(C(O)(C(F)(F)F)C(F)(F)F)cc1 [LXRa, T0901317] | ameliorates the negative effect | 60% | similar | not observed | release lipids to the medium | – | –
CCCCCCCC/C=C\CCCCCCCC(=O)O [Oleic acid, oleic acid] | – | – | – | – | – | negative effect | no effect
